The conditions of series [1]: amide bond, 13-membered ring, DMF.
Series [2] has as its target T1, CFTR (Homo sapiens, UniProt P13569, DEL508-508).
T1 construct: endogenous in cells; host or cells: primary human bronchial epithelial cells from CF subjects (F508del/MF-HBE), differentiated at air-liquid interface
The experiment in a line: HBE assay: Ussing chamber assay of CFTR-mediated short-circuit currents. The settings on record: for activation at 10 µM: read-out: HBE Activity at 10 μM (%); for EC50: read-out: HBE EC50. The format is cell-based. The gist of the method: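 CFTR-mediated Isc (μA/cm²) equals the peak response to apical 20 μM forskolin minus the residual after a 20 μM each BPO/GlyH-101/CFTR inhibitor 172 cocktail, recorded in Ussing chambers at Vhold 0 mV, 37 °C, pH 7.4, with 30 μM apical amiloride. Cells were F508del/MF HBE cultures preincubated 18-24 h with corrector (concentration range or 10 μM) plus 1 μM ivacaftor in 20% human serum.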

Series [3] concerns the target T1, CFTR. The experiment in a line: HBE2 assay: Ussing chamber assay of CFTR-mediated short-circuit currents. The format is cell-based. The following applies: F508del/MF-HBE cells, with 44 nM potentiator, 18-24 hours, 20% human serum; for Emax: read-out: HBE2 Max activity (%). The gist of the method:
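Corrector activity read as CFTR-dependent ISC (μA/cm^2): peak forskolin current minus post-inhibitor steady state. Measured at 37 °C, voltage clamp at 0 mV, on F508del/MF-HBE epithelia grown >14 days air-liquid interface in Ussing chambers.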

Where [4] appears, read: Table 11, read-out: HBE Max Activity (%).
Setting [5] is: Table 10, read-out: HBE Max activity (%).

Where two headings read alike, the source gives them in different places.

T1 sequence (P13569 with tags, fused parts or gaps DEL508-508): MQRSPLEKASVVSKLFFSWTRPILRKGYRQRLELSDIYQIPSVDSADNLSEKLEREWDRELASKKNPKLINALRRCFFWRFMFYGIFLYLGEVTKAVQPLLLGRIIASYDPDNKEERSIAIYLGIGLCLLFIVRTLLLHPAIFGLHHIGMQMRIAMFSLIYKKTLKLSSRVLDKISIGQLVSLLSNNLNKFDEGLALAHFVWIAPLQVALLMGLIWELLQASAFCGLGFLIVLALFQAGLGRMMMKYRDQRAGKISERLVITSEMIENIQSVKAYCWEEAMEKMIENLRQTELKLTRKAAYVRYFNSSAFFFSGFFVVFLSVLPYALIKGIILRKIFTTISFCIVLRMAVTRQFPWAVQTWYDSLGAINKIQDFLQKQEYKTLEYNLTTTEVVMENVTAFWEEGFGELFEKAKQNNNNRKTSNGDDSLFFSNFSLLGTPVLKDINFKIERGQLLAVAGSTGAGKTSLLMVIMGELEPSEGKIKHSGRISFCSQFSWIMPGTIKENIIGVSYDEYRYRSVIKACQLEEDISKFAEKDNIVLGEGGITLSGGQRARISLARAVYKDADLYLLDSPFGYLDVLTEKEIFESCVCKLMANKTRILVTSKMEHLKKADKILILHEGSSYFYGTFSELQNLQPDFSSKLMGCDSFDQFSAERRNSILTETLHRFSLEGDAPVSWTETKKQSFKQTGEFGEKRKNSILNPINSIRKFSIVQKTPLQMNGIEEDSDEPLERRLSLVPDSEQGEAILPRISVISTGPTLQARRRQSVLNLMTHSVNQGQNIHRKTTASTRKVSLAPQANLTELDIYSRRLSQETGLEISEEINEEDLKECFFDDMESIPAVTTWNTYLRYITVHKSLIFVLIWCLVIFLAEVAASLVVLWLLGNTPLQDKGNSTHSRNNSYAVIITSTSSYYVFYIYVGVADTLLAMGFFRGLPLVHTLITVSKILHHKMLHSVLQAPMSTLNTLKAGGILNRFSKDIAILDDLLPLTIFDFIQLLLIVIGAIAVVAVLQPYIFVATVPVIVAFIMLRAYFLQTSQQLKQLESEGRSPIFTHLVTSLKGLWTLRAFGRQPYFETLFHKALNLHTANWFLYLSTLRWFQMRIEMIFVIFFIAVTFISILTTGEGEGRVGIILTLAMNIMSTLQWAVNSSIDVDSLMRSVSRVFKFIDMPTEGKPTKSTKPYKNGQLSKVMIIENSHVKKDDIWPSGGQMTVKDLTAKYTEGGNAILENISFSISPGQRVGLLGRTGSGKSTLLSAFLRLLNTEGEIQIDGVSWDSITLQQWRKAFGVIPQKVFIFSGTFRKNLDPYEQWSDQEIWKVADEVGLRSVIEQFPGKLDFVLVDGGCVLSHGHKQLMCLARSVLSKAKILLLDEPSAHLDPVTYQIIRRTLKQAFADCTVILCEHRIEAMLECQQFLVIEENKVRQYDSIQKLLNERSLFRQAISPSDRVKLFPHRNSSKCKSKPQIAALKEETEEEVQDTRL

As usually defined, the EC50 is the concentration that produces a half-maximal response. `Cc1cccc(C)c1-c1cc2nc(n1)NS(=O)(=O)c1cccc(c1)C(=O)N(Cc1ncc(OC(C)C)cn1)[C@H](CC1(C)CC1)CO2` [Compound 1306, (11R)-6-(2,6-Dimethylphenyl)-12-[(5-isopropoxypyrimidin-2-yl)methyl]-11-[(1-methylcyclopropyl)methyl]-2,2-dioxo-9-oxa-2λ^6-thia-3,5,12,19-tetrazatricyclo[12.3.1.14,8]nonadeca-1(18),4(19),5,7,14,16-hexaen-13-one] came in with a ring closure, yield after HPLC in series [1] (from Cc1cccc(C)c1-c1cc(OC[C@@H](CC2(C)CC2)NCc2ncc(OC(C)C)cn2)nc(NS(=O)(=O)c2cccc(C(=O)O)c2)n1, CDMT/NMM, 33.8 mM, 4.0 h) of 53%. In series [2] (HBE assay, 10 μM), the activation at 10 µM was more than 60%. Besides, in series [3], the “HBE2 Activity at 3 μM (%)” value was “+++ (+++ is >60+)”, the EC50 was less than 1000 nM and the Emax was more than 60%.

In series [1] (from Cc1cccc(C)c1-c1cc(OC[C@@H](CC2(C)CCC2)NCc2ncc(OC(C)C)cn2)nc(NS(=O)(=O)c2cccc(C(=O)O)c2)n1, CDMT/NMM, 12.9 mM, 22.0 h), `Cc1cccc(C)c1-c1cc2nc(n1)NS(=O)(=O)c1cccc(c1)C(=O)N(Cc1ncc(OC(C)C)cn1)[C@H](CC1(C)CCC1)CO2` [Compound 1317, (11R)-6-(2,6-Dimethylphenyl)-12-[(5-isopropoxypyrimidin-2-yl)methyl]-11-[(1-methylcyclobutyl)methyl]-2,2-dioxo-9-oxa-2λ6-thia-3,5,12,19-tetrazatricyclo[12.3.1.14,8]nonadeca-1(18),4(19),5,7,14,16-hexaen-13-one] came in with a ring closure, yield after HPLC of 64%. In series [3], the “HBE2 Activity at 3 μM (%)” value was “+++ (+++ is >60+)”.

On to `Cc1cccc(C)c1-c1cc2nc(n1)NS(=O)(=O)c1cccc(c1)C(=O)N(Cc1ncc(N3CC(C)(C)C3)cn1)[C@H](CC1(C)CC1)CO2` [Compound 1307, (11R)-12-[[5-(3,3-Dimethylazetidin-1-yl)pyrimidin-2-yl]methyl]-6-(2,6-dimethylphenyl)-11-[(1-methylcyclopropyl)methyl]-2,2-dioxo-9-oxa-2λ^6-thia-3,5,12,19-tetrazatricyclo[12.3.1.14,8]nonadeca-1(18),4(19),5,7,14,16-hexaen-13-one], for which the ring closure, yield after HPLC in series [1] (from Cc1cccc(C)c1-c1cc(OC[C@@H](CC2(C)CC2)NCc2ncc(N3CC(C)(C)C3)cn2)nc(NS(=O)(=O)c2cccc(C(=O)O)c2)n1, CDMT/NMM, 24.2 mM, 3.0 h) was found to be 65%. The activation at 10 µM in series [2] (HBE assay, 10 μM) is more than 60%. In addition, in series [3], the “HBE2 Activity at 3 μM (%)” value is given as “+++ (+++ is >60+)”.

Compound `Cc1cccc(C)c1-c1cc2nc(n1)NS(=O)(=O)c1cccc(c1)C(=O)N(Cc1ncc(OC(C)C)cn1)[C@H](CC(C)(C)C)CO2` [Compound 118, (11R)-6-(2,6-Dimethylphenyl)-11-(2,2-dimethylpropyl)-12-{[5-(propan-2-yloxy)pyrimidin-2-yl]methyl}-9-oxa-2λ^6-thia-3,5,12,19-tetraazatricyclo[12.3.1.14,8]nonadeca-1(17),4,6,8(19),14(18),15-hexaene-2,2,13-trione] showed a ring closure, yield after HPLC in series [1] (from Cc1cccc(C)c1-c1cc(OC[C@@H](CC(C)(C)C)NCc2ncc(OC(C)C)cn2)nc(NS(=O)(=O)c2cccc(C(=O)O)c2)n1, CDMT/NMM, 14.3 mM, 13.25 h) of 59%. Also, the half-maximal effective concentration (EC50) in series [2] (Table 11) was less than 1000 nM. Further, the Emax in series [2] (setting [4]) was more than 60%.

`Cc1cccc(C)c1-c1cc2nc(n1)NS(=O)(=O)c1cccc(c1)C(=O)N(Cc1nccc(C(F)(F)F)n1)[C@H](CC(C)(C)C)CO2` [Compound 122, (11R)-6-(2,6-Dimethylphenyl)-11-(2,2-dimethylpropyl)-12-{[4-(trifluoromethyl)pyrimidin-2-yl]methyl}-9-oxa-2λ^6-thia-3,5,12,19-tetraazatricyclo[12.3.1.14,8]nonadeca-1(17),4,6,8(19),14(18),15-hexaene-2,2,13-trione] came in with a ring closure, yield after HPLC in series [1] (from Cc1cccc(C)c1-c1cc(OC[C@@H](CC(C)(C)C)NCc2nccc(C(F)(F)F)n2)nc(NS(=O)(=O)c2cccc(C(=O)O)c2)n1, CDMT/NMM, 27.3 mM) of 48%. The EC50 in series [2] (Table 11) is less than 1000 nM. For the same compound, in series [2] (setting [4]), the Emax was more than 60%.

For `Cc1cccc(C)c1-c1cc2nc(n1)NS(=O)(=O)c1cccc(c1)C(=O)N(Cc1ncc(NCC(C)(C)C)cn1)[C@H](CC(C)(C)C)CO2` [Compound 116, (11R)-6-(2,6-Dimethylphenyl)-11-(2,2-dimethylpropyl)-12-[[5-(2,2-dimethylpropylamino)pyrimidin-2-yl]methyl]-2,2-dioxo-9-oxa-2λ^6-thia-3,5,12,19-tetrazatricyclo[12.3.1.14,8]nonadeca-1(18),4(19),5,7,14,16-hexaen-13-one], the ring closure, yield after HPLC in series [1] (from 3-[[4-(2,6-dimethylphenyl)-6-[(2R)-2-[[5-(2,2-dimethylpropylamino)pyrimidin-2-yl]methylamino]-4,4-dimethyl-pentoxy]pyrimidin-2-yl]sulfamoyl]benzoic acid (Dihydrochloride salt), HATU/DIEA, 23.6 mM, 25.0 °C) worked out at 15%. Further, in series [2] (Table 11, at 10 μM), the activation at 10 µM was more than 60%. Also, in series [2] (Table 11), the EC50 is less than 1000 nM. For the same compound, in series [2] (setting [4]), the Emax was more than 60%.

`Cc1cccc(C)c1-c1cc2nc(n1)NS(=O)(=O)c1cccc(c1)C(=O)N(Cc1ncc(N3CCOCC3)cc1N1CCOCC1)[C@H](CC(C)(C)C)CO2` [Compound 56, (11R)-6-(2,6-Dimethylphenyl)-11-(2,2-dimethylpropyl)-12-[(3,5-dimorpholino-2-pyridyl)methyl]-2,2-dioxo-9-oxa-2λ^6-thia-3,5,12,19-tetrazatricyclo[12.3.1.14,8]nonadeca-1(18),4(19),5,7,14,16-hexaen-13-one]: the ring closure, yield after HPLC in series [1] (from Cc1cccc(C)c1-c1cc(OC[C@@H](CC(C)(C)C)NCc2ncc(N3CCOCC3)cc2N2CCOCC2)nc(NS(=O)(=O)c2cccc(C(=O)O)c2)n1, CDMT/NMM, 25.0 °C, 2.5 h, 2 steps) amounted to 22%. Further, in series [2] (Table 10), the EC50 was less than 1000 nM. For the same compound, the Emax in series [2] (setting [5]) was more than 60%.

Take `Cc1cccc(C)c1-c1cc2nc(n1)NS(=O)(=O)c1cccc(c1)C(=O)N(Cc1cncc(N(C)C3CCC3)n1)[C@H](CCC(C)(C)C)CO2` [Compound 1319, (11R)-12-[[6-[Cyclobutyl(methyl)amino]pyrazin-2-yl]methyl]-11-(3,3-dimethylbutyl)-6-(2,6-dimethylphenyl)-2,2-dioxo-9-oxa-2λ^6-thia-3,5,12,19-tetrazatricyclo[12.3.1.14,8]nonadeca-1(18),4(19),5,7,14,16-hexaen-13-one]: the ring closure, yield after HPLC in series [1] (from Cc1cccc(C)c1-c1cc(OC[C@@H](CCC(C)(C)C)NCc2cncc(N(C)C3CCC3)n2)nc(NS(=O)(=O)c2cccc(C(=O)O)c2)n1, CDMT/NMM, 26.4 mM, 13.1 h) amounted to 44%. Moreover, in series [3], the “HBE2 Activity at 3 μM (%)” value was “+++ (+++ is >60+)”, the EC50 was less than 1000 nM and the Emax was more than 60%.

`Cc1cccc(C)c1-c1cc2nc(n1)NS(=O)(=O)c1cccc(c1)C(=O)N(C[C@@H]1CN(C(=O)OC(C)(C)C)CCO1)[C@H](CC(C)(C)C)CO2` [Compound 141, tert-Butyl (2R)-2-[[(11R)-6-(2,6-dimethylphenyl)-11-(2,2-dimethylpropyl)-2,2,13-trioxo-9-oxa-2λ^6-thia-3,5,12,19-tetrazatricyclo[12.3.1.14,8]nonadeca-1(18),4(19),5,7,14,16-hexaen-12-yl]methyl]morpholine-4-carboxylate]: the ring closure, yield after HPLC in series [1] (from Cc1cccc(C)c1-c1cc(OC[C@@H](CC(C)(C)C)NC[C@@H]2CN(C(=O)OC(C)(C)C)CCO2)nc(NS(=O)(=O)c2cccc(C(=O)O)c2)n1, CDMT/NMM, 26.4 mM) came to 69%. In addition, in series [2] (Table 11), the EC50 is less than 1000 nM. For the same compound, in series [2] (setting [4]), the Emax was more than 60%.

Take `Cc1cccc(C)c1-c1cc2nc(n1)NS(=O)(=O)c1cccc(c1)C(=O)N(Cc1ccc(N3CCOCC3)cn1)[C@H](CC1CC3(CCC3)C1)CO2` [Compound 3, (11R)-6-(2,6-Dimethylphenyl)-12-[(5-morpholino-2-pyridyl)methyl]-2,2-dioxo-11-(spiro[3.3]heptan-2-ylmethyl)-9-oxa-2λ^6-thia-3,5,12,19-tetrazatricyclo[12.3.1.14,8]nonadeca-1(18),4(19),5,7,14,16-hexaen-13-one]: the ring closure, yield after HPLC in series [1] (from Cc1cccc(C)c1-c1cc(OC[C@@H](CC2CC3(CCC3)C2)NCc2ccc(N3CCOCC3)cn2)nc(NS(=O)(=O)c2cccc(C(=O)O)c2)n1, CDMT/NMM, 25.0 °C, 2.5 h, 2 steps) amounted to 11%. Moreover, the EC50 in series [2] (Table 10) is less than 1000 nM. For the same compound, the Emax in series [2] (setting [5]) was more than 60%.

Consider `COCc1cccc(CN2C(=O)c3cccc(c3)S(=O)(=O)Nc3nc(cc(-c4c(C)cccc4C)n3)OC[C@H]2CC(C)(C)C)n1` [Compound 130, (11R)-6-(2,6-Dimethylphenyl)-11-(2,2-dimethylpropyl)-12-[[6-(methoxymethyl)-2-pyridyl]methyl]-2,2-dioxo-9-oxa-2λ^6-thia-3,5,12,19-tetrazatricyclo[12.3.1.14,8]nonadeca-1(18),4(19),5,7,14,16-hexaen-13-one], for which the ring closure, yield after HPLC in series [1] (from COCc1cccc(CN[C@@H](COc2cc(-c3c(C)cccc3C)nc(NS(=O)(=O)c3cccc(C(=O)O)c3)n2)CC(C)(C)C)n1, CDMT/NMM, 3.0 h, 2 steps) is 10%. Besides, the EC50 in series [2] (Table 11) was less than 1000 nM. In series [2] (setting [4]), the Emax was more than 60%.

Values taken from patent US20240150377A1, “MODULATORS OF CYSTIC FIBROSIS TRANSMEMBRANE CONDUCTANCE REGULATOR” (VERTEX PHARMACEUTICALS INCORPORATED, priority 2020, published 2024).
